# Assay results as given in patent publication US8394971B2, “Indole derivatives as selective androgen receptor modulators (SARMS)” (Janssen Pharmaceutica N.V., priority 2004, dated 2013).
# “And” between values parts separate entries of the source, which are not always exact repeats. Identical values can stand only once.
# Experiments:
# [1] = biological target: T1, androgen receptor (adenovirus AdEasy+rAR in L929 cells) (Rattus norvegicus, UniProt P15207); assay: L929 Androgen Receptor Functional Assay, Adenovirus Transduction; type: cell-based; settings: for % Activity: L929 agonist testing
# T1 construct: expressed in transfected cells
# T1 sequence (P15207 1-902): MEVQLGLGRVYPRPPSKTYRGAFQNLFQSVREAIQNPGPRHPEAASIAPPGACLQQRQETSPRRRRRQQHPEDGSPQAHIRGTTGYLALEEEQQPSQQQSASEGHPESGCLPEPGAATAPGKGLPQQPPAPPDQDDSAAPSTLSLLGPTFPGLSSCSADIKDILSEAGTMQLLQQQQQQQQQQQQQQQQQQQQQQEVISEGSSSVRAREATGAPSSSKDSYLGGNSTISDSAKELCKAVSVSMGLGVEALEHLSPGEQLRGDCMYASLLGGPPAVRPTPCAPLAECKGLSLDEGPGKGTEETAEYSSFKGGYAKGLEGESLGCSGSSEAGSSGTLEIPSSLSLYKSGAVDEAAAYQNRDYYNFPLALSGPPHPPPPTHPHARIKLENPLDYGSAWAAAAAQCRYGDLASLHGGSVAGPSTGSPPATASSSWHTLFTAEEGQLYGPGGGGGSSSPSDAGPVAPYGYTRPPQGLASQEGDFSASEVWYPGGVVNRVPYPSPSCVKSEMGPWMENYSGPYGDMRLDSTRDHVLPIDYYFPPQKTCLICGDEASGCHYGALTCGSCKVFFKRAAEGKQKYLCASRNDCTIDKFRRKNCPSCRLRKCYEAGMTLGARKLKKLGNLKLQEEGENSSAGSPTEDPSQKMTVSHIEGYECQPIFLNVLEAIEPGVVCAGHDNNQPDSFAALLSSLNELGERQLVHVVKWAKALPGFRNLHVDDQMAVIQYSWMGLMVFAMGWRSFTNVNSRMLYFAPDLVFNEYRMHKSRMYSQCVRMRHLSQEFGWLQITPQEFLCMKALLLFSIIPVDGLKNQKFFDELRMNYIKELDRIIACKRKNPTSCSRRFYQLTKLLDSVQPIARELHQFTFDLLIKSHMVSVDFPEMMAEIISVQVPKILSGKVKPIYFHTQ
# Experimental: L929 cells were plated in 96-well plates at 20,000 cells per well, in DMEM/F12 (GIBCO) containing 10% (v/v) charcoal-treated fetal bovine serum (Hyclone) and lacking phenol red. The plates were then incubated overnight at 37° C. in 5% (v/v) humidified CO2.
# Test compound dilutions were prepared in 100% (v/v) DMSO, if necessary. Each dilution was made to 1250× the final desired assay concentration.
# First, 2 mL of DMEM/F12 lacking phenol red was pipetted into the wells of a 2-mL 96-well assay block. Next, 4 μL of the 1250× test compound dilutions were pipetted into each well of the assay block. The mixtures within the well were then carefully mixed by pipette.
# In a 15 mL or 50 mL sterile centrifuge tube, a 2.5 nM (2.5×) dilution of R1881 (methyl-trienolone) in DMEM/F12 lacking phenol red was prepared.
# In a second 15 mL or 50 mL centrifuge tube a solution containing an equal volume of DMEM to the first and an equal volume of 100% (v/v) DMSO to the volume of R1881 used in the first tube was prepared.
# In a 15 mL or 50 mL sterile centrifuge tube, a dilution in DMEM/F12 of the adenovirus AdEasy+rAR at an moi of 1:500 per well was prepared.
# The medium was removed from the 96-well plates by inversion and dried, inverted, very briefly. As soon as possible after medium removal, 40 μL of the diluted unlabeled test compound was added to each well, in duplicate. To each well designated for antagonist testing was added 40 μL of the 2.5 nM R1881 dilution to the wells for antagonist testing. To each well designated for agonist testing was added 40 μL of the DMSO dilution. Then 20 μL of the diluted adenovirus were added to all wells. The plates were incubated for 48 hours at 37° C. in 5% (v/v) humidified CO2.
# To each well was added 100 μL of Steady-Glo luciferase assay substrate (Promega) and the plates were placed on a rotary shaker for 1 min. The plates were then incubated at room temperature in the dark for one hour. The contents of each well were then transferred to a white microtiter plate (Packard) and read on a Luminoskan Ascent (Thermo Lab Systems).
# L929 AR percent activity was determined by testing dilutions of the test compound using a concentration of 3000 nM unless otherwise noted. L929 percent inhibition was determined by testing dilutions of the test compound using a concentration of 3000 nM. […] Luciferase activity per well were measured and EC50s and IC50s determined by linear regression.
# [2] = biological target: T2, androgen receptor (adenovirus AdEasy+rAR in COS-7 cells) (Rattus norvegicus, UniProt P15207); assay: COS-7 Whole-Cell Androgen Receptor Binding Assay, Adenovirus Transduction; settings: for % Inhibition / inhibition at 3 µM: COS binding, 3000 nM unless otherwise noted
# T2 construct: expressed in transfected cells
# T2 sequence (P15207 1-902): T1 sequence (P15207 1-902)
# Experimental: COS-7 cells were plated in 96-well plates at 20,000 cells per well, in a solution of DMEM/F12 (GIBCO) containing 10% (v/v) charcoal-treated fetal bovine serum (Hyclone) and lacking phenol red. The cells were then incubated overnight at 37° C. in 5% (v/v) humidified CO2.
# Test compound solutions were prepared by diluting the test compound in 100% (v/v) DMSO, if necessary.
# Next, 1 mL of DMEM/F12 lacking phenol red was pipetted into each of the wells of a 2-mL 96-well assay block. […] The wells were carefully mixed by pipette.
# In a 15 mL or 50 mL sterile centrifuge tube, a dilution in DMEM/F12 of the adenovirus AdEasy+rAR at a moi of 1:50 per well was prepared.
# The medium was removed from the 96-well plates by inversion and the plates dried very briefly, inverted, on a sterile towel. As soon as possible after medium removal, 40 μL of the diluted test compound was added to each well, in duplicate. […] The plates were then incubated for 48 hours at 37° C. in 5% (v/v) humidified CO2.
# The medium was removed from the above incubated plates by inversion and dried. Each well was then washed with 0.35 mL of 1×PBS. The PBS was then removed from the plates by inversion and the plates dried.
# To each well was then added 50 μL of 0.5% (v/v) Triton X-100 (Sigma) in 1×PBS and the plates placed on a rotary shaker for 5 min. The contents of each well were then transferred to an OptiPlate-96 (Packard) scintillation plate. To each well was then added 0.2 mL of Microscint-20 (Packard) and the wells counted on a TopCount (Packard).
# […] Counts per well were measured and percents of inhibition determined. […] Counts per well were measured and IC50s determined by linear regression.
# [3] = test system: testosterone-enhanced ventral prostate and seminal vesicle weights in castrated male Sprague Dawley rats; assay: Ventral Prostate and Seminal Vesicle Weight In Vivo Assay; set-up: species or system rat; settings: immature castrated rats; once daily for five days, usually orally at 40 mg/kg, with testosterone propionate 2 mg/kg s.c.
# Experimental: Immature (approximately 50 g) castrated male Sprague Dawley rats (Charles River) were treated once daily for five days with test compound (usually given orally at 40 mg/kg in a volume of 0.3 mL, in 30% cyclodextrin or 0.5% methylcellulose vehicle) and with testosterone propionate (given subcutaneously by injection at the nape of the neck at 2 mg/kg, in a volume of 0.1 mL in sesame oil). On the sixth day, the rats were euthanized by asphyxiation in carbon dioxide. Ventral prostates and seminal vesicles were removed and their wet weights determined.
# A test compound was said to be “active” if the non weight adjusted prostate weight was ≦40 mg or the % Inhibition prostate weight, body weight adjusted was ≧40% @2 mg/day dosage.
Compound,% Activity ([1]; 3000 nM) [%],active / inactive (inhibition of testosterone-enhanced prostate weight) [3],further results
CC(O)(CS(C)(=O)=O)c1cc2cc([N+](=O)[O-])c(C(F)(F)F)cc2[nH]1 (stereo not shown) [compound 147],0,–,% Inhibition [2]: 6.1%
CC(O)(CSc1ccc([N+](=O)[O-])cc1)c1cc2cc(Cl)c(C(F)(F)F)cc2[nH]1 (stereo not shown) [compound 122],10,–,inhibition at 3 µM [2]: 66%
CCSCC(C)(O)c1cc2cc(Cl)c(C(F)(F)F)cc2[nH]1 (stereo not shown) [compound 152],–,inactive,inhibition at 3 µM [2]: 39%
"CSCC(C)(O)c1cc2cc([N+](=O)[O-])c(C(F)(F)F)cc2[nH]1 (single isomer, unassigned) [compound 145]",–,–,"% Activity ([1]; 3000 nM, 3 µM): 1%; % Inhibition [2]: 84.7%"
"CCSCC(C)(O)c1[nH]c2cc(C(F)(F)F)c([N+](=O)[O-])cc2c1C#N (single isomer, unassigned) [compound 247]",–,inactive,% Inhibition [2]: 90%
CCS(=O)(=O)CC(C)(O)c1cc2cc([N+](=O)[O-])c(C(F)(F)F)cc2[nH]1 (stereo not shown) [compound 151],–,–,% Activity ([1]; @ 8000 nM): −1 @ 8000 nM %; % Inhibition [2]: 55%
CC(O)(CSc1ccc(O)cc1)c1cc2cc(Cl)c(C(F)(F)F)cc2[nH]1 (stereo not shown) [compound 120],−5,–,inhibition at 3 µM [2]: 86%
CSC(C)(O)c1cc2cc([N+](=O)[O-])c(C(F)(F)F)cc2[nH]1 (racemic) [compound 267],–,inactive,"% Activity ([1]; 3000 nM, 3 µM): −5% and 0%"
CC(O)(CSc1ccc(C(=O)O)cc1)c1cc2cc(Cl)c(C(F)(F)F)cc2[nH]1 (stereo not shown) [compound 133],−4,–,inhibition at 3 µM [2]: 65%
"CCSCC(C)(O)c1cc2cc(C#N)c(C(F)(F)F)cc2[nH]1 (stereo not shown) [Compound #218, 2-(2-Ethylsulfanyl-1-hydroxy-1-methyl-ethyl)-6-trifluoromethyl-1H-indole-5-carbonitrile]",0,inactive,–
CC(O)(CS(C)(=O)=O)c1cc2cc([N+](=O)[O-])c(C(F)(F)F)cc2[nH]1 (stereo not shown) [compound 148],0,–,% Inhibition [2]: 32%
CCSCC(C)(O)c1[nH]c2cc(C(F)(F)F)c(Br)cc2c1C (stereo not shown) [compound 220],−3,inactive,"inhibition at 3 µM ([1]; L929, L929 antagonist testing with R1881, 3000 nM): 103%"
CCSCC(C)(O)c1[nH]c2cc(C(F)(F)F)c([N+](=O)[O-])cc2c1C#N (stereo not shown) [compound 242],–,inactive,inhibition at 3 µM [2]: 92%
CN(C)c1ccc(SCC(C)(O)c2cc3cc(Cl)c(C(F)(F)F)cc3[nH]2)cc1 (stereo not shown) [compound 124],−4,inactive,–
CSCCC(C)(O)c1cc2cc(Cl)c(C(F)(F)F)cc2[nH]1 (racemic) [compound 51],2,inactive,–
CC[S+]([O-])CC(C)(O)c1cc2cc(C(F)(F)F)c([N+](=O)[O-])cc2[nH]1 (mixture of isomers) [compound 230],0,active,–
CC(O)(CS(=O)(=O)CC(F)(F)F)c1cc2cc([N+](=O)[O-])c(C(F)(F)F)cc2[nH]1 (racemic) [compound 208],1,active,–
O=[N+]([O-])c1cc2cc(C3(O)CCSCC3)[nH]c2cc1C(F)(F)F [compound 17],–,inactive,IC50 [2]: > 1.5 µM
CC(O)(CS(=O)(=O)CC(F)(F)F)c1[nH]c2cc([N+](=O)[O-])c(C(F)(F)F)cc2c1Cl (stereo not shown) [compound 207],–,active,"% Activity ([1]; 3000 nM, 3 µM): 1% and −1%"
CCSCC(O)(CC)c1cc2cc(C#N)c(C(F)(F)F)cc2[nH]1 (stereo not shown) [Compound #223],–,active,% Activity ([1]; @ 8000 nM): 0 @ 8000 nM %
CC[S+]([O-])CC(O)c1cc2cc([N+](=O)[O-])c(C(F)(F)F)cc2[nH]1 (mixture of isomers) [compound 180],2,inactive,–
CCSCC(C)(O)c1[nH]c2cc(C(F)(F)F)c(C#N)cc2c1C (stereo not shown) [compound 219],–,inactive,"% Activity ([1]; 3000 nM, 3 µM): −3%"
CCSCC(C)(O)c1[nH]c2cc(C(F)(F)F)c([N+](=O)[O-])cc2c1C (racemic) [compound 221],−1,inactive,–
CCS(=O)(=O)CC(C)(O)c1cc2cc(C#N)c(C(F)(F)F)cc2n1C (racemic) [compound 240],0,inactive,–
CCS(=O)(=O)CC(C)(O)c1[nH]c2cc(C(F)(F)F)c(C#N)cc2c1C (racemic) [compound 246],–,–,inhibition at 3 µM [2]: 70%
CC(O)(CSCc1ccco1)c1cc2cc([N+](=O)[O-])c(C(F)(F)F)cc2[nH]1 (racemic) [compound 198],7,inactive,–
